The numbers were not newly measured in publication PMC8416020 (eLife, 2021), which cites them from elsewhere.

Where no end group is shown, it is not given here.

This data set concerns GHSR. To be noted: ref M'Kadmi et al., 2015; cited from earlier work.

Take “ghrelin: natural full agonist of GHSR, natural peptide agonist (GSSFLSPEHQRVQQRKESKKPPAKLQPR; not fully specified; ends and bridges not checked; UniProt Q9UBU3 24-51, looked up)”: the pharmacological class result is “natural full agonist”.
